Here are results for two molecules from article PMC3495945, “Org 214007-0: A Novel Non-Steroidal Selective Glucocorticoid Receptor Modulator with Full Anti-Inflammatory Properties and Improved Therapeutic Index” (PLoS ONE, 2012).

The subject of one assay is LPS-induced TNFα release. Nature of the assay: LPS-induced TNFα acute inflammation mouse model. It counts as in vivo. The conditions noted are these: oral; for ED50: Mus musculus, 1 hour before LPS i.p., Balb/c mice, read-out: ED50, inhibition of LPS-induced serum TNFα. The procedure:
For both the LPS-induced TNFα as well as the anti-CD3 induced IL-2 model, female Balb/c mice of 8–12 week old were used. Mice were treated orally with 0.2 ml compound or vehicle (water/mannitol (5%) with 5% DMSO/5% chremophore for the LPS model or with 0.5% gelatine for the anti-CD3 model). One hour after oral treatment animals were challenged i.p. with 0.2 ml of either 20 μg/mouse LPS (Sigma, E. coli serotype 055:B5) or 5 µg/mouse hamster anti-CD3 monoclonal (BD Biosciences Pharmingen, art. nr. 553057, clone 145-2C11). Ninety minutes after LPS injection or 3 hours after anti-CD3 challenge, blood samples were collected and serum levels of TNFα or IL-2 were determined via specific ELISAs (BD Biosciences Pharmingen, San Diego, CA, USA). In the experiment that included treatment with RU486 to block GR, mice were dosed subcutaneously with 50 mg/kg RU486 30 minutes before the oral compound dosing. ED50 and % efficacy (maximal percentage inhibition of TNFα or IL-2 release) are determined using a 3 parameter sigmoidal curve calculation. Statistical analysis of the results was performed using an one-way ANOVA (log) test.

The next assay has as its target T1, GR (Homo sapiens, UniProt P04150).
T1 sequence (P04150 1-777): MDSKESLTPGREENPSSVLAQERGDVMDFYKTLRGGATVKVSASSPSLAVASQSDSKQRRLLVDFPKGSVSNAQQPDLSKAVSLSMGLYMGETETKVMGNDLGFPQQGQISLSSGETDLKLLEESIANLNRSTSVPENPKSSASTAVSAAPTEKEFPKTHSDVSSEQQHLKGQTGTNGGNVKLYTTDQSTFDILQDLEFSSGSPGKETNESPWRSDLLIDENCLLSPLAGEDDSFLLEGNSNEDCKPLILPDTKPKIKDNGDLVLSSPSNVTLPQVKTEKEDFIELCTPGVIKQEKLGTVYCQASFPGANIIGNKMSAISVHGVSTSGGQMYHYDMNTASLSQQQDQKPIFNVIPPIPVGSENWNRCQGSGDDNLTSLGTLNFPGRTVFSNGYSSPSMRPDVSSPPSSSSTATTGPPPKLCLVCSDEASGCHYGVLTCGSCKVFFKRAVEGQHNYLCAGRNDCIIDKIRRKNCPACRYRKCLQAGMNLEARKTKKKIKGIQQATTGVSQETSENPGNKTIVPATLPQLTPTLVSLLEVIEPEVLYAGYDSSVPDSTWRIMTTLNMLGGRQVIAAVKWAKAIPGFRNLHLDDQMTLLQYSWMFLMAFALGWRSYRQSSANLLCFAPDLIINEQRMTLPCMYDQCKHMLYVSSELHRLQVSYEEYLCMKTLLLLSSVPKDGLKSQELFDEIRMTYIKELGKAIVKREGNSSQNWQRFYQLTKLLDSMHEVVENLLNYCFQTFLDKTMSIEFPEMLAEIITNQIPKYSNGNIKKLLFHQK
The assay is described as follows: CHO-GR B4.8 MMTV-luciferase induction of gene expression (agonistic). On the set-up: expressed in transfected cells. It counts as cell-based. The conditions noted are these: for Max. eff., MMTV-luc induction: relative to maximal effect of prednisolone (100%). The source says: For monitoring both human steroid receptor agonistic as well as antagonistic activity of compounds, Chinese hamster ovary (CHO) K1 cells stably co-transfected with the specific human steroid receptor and its respective reporter construct were used (as previously described).
For human glucocorticoid receptor (GR)-specific activity CHO-GR B4.8 cells containing both recombinant human GR as well as a reporter construct consisting of the mouse mammary tumor virus (MMTV) promotor and the luciferase reporter gene, were used. Compound was incubated alone (in the agonistic setup) or with 50 nM dexamethasone (in the antagonistic setup) overnight. Hereafter, 200 µl medium was removed and 50 µl luciferine substrate solution from the LucLite luminescence kit (Packard, Meriden, USA) was added. […] Percentage maximal antagonistic efficacy was related to the maximal antagonistic efficacy of reference GR antagonist Org 34116. Similar procedures were followed for the other human steroid receptor assays (for more detailed information see Supportive Information) (SI text).
For human glucocorticoid receptor (GR)-specific activity CHO-GR B4.8 cells containing both recombinant human GR as well as a reporter construct consisting of the mouse mammary tumor virus (MMTV) promotor and the luciferase reporter gene, were used. Compound was incubated alone (in the agonistic setup) or with 50 nM dexamethasone (in the antagonistic setup) in microtiter white culture plates seeded with 2.4 x 10^4 cells / 200 µl Dulbecco’s MEM/Nutrient Mix F12 medium (Gibco) supplemented with 5% charcoal treated defined bovine calf serum supplement (DBCSS, Hyclone, Utah, USA), and 10 U/ml Penicillin-10μg/ml Streptomycin (GibcoBRL) overnight at 37°C in the dark under a humidified atmosphere flushed with 5% CO2 in air. Hereafter, 200 µl medium was removed and 50 µl luciferine substrate solution from the LucLite luminescence kit (Packard, Meriden, USA) was added. After 10 minutes (when cell lysis was complete) luminescence of each sample was counted using a Topcount microplate luminescence counter. Percentage maximal agonistic efficacy was related to the maximal efficacy of dexamethasone. Percentage maximal antagonistic efficacy was related to the maximal antagonistic efficacy of reference GR antagonist Org 34116. EC50 value was calculated by 4-parameter curve fitting using the effect of 6 compound concentrations.

SMILES strings stand for the structures.

For `C[C@]12C=CC(=O)C=C1CC[C@@H]1[C@@H]2[C@@H](O)C[C@@]2(C)[C@H]1CC[C@]2(O)C(=O)CO` [prednisolone, reference compound], the ED50 in the assay with LPS-induced TNFα release was found to be 1 mg/kg. Moreover, at GR, the “Max. eff., MMTV-luc induction” value stood at 100%.

With `Cc1nnsc1C(=O)N[C@H]1CCN2c3ccc(C#N)cc3[C@@H](C)c3ccccc3[C@@H]2C1` [Org 214007-0], in the assay on LPS-induced TNFα release, the ED50 was 0.5 mg/kg and the “maximal efficacy, inhibition of LPS-induced TNFα release” value was found to be 90%. Besides, the EC50 at GR (CHO cells co-transfected with human GR and MMTV-luciferase, mean (±SD), read-out: EC50, MMTV-luc induction) turned out to be 5.1 nM. Besides, the “Max. eff., MMTV-luc induction” value at GR is 32%. Besides, the “Max. eff., MMTV-luc induction” value on GR (listed as Org) is recorded as 32 (±8.1) %.
